Data taken from patent publication US11992473B2, “Compositions and methods for diagnosis and treatment of conditions related to the quality of aging and longevity” (Epitracker, Inc., priority 2018, dated 2024).

Assays:
Format in all cases: cell-based, human
Lung fibroblasts = assay: BioMAP Diversity PLUS MyoF system (myofibroblast differentiation and tissue remodeling)
Method: (§1) This study examined activities of small molecules discovered in dolphin serum that had protective profiles against diseases of aging which can impact quality of life and longevity. These molecules were tested across 12 human primary cell-based systems as part of DiscoverX's BioMAP Diversity Plus program. These systems are designed to model complex human tissue and disease biology of the vasculature, skin, lung, and inflammatory tissues. Quantitative measurements of biomarker activities across this broad panel, along with comparative analysis of biological activities of known bioactive agents were used to predict and compare the efficacy and function of the four compounds. Compounds were tested at four concentrations (740 nm and 2.2, 6.7 and 20 μM).
(§2) BioMAP panels consist of human primary cell-based systems designed to model different aspects of the human body in an in vitro format. The 12 systems in the Diversity PLUS panel allow test agent characterization in an unbiased way across a broad set of systems modeling various human disease states. BioMAP systems are constructed with one or more primary cell types from healthy human donors, with stimuli (such as cytokines or growth factors) added to capture relevant signaling networks that naturally occur in human tissue or pathological conditions. Vascular biology is modeled in both a Th1 (3C system) and a Th2 (4H system) inflammatory environment, as well as in a Th1 inflammatory state specific to arterial smooth muscle cells (CASM3C system). Additional systems recapitulate aspects of the systemic immune response including monocyte-driven Th1 inflammation (LPS system) or T cell stimulation (SAg system), chronic Th1 inflammation driven by macrophage activation (lMphg system) and the T cell-dependent activation of B cells that occurs in germinal centers (BT system). The BE3C system (Th1) and the BF4T system (Th2) represent airway inflammation of the lung, while the MyoF system models myofibroblast-lung tissue remodeling. Lastly, skin biology is addressed in the KF3CT system modeling Th1 cutaneous inflammation and the HDF3CGF system modeling wound healing.
(§3) Each test agent generates a signature BioMAP profile that is created from the changes in protein biomarker readouts within individual system environments. Biomarker readouts (7-17 per system) are selected for therapeutic and biological relevance, are predictive for disease outcomes or specific drug effects and are validated using agents with known mechanism of action (MoA). Each readout is measured quantitatively by immune-based methods that detect protein (e.g., ELISA) or functional assays that measure proliferation and viability. BioMAP readouts are diverse and include cell surface receptors, cytokines, chemokines, matrix molecules and enzymes. In total, the Diversity PLUS panel contains 148 biomarker readouts that capture biological changes that occur within the physiological context of the particular BioMAP system. Specific BioMAP activities have been correlated to in vivo biology, and multiparameter BioMAP profiles have been used to distinguish compounds based on MoA and target selectivity across diverse physiological systems.
(§4) The Diversity PLUS panel allows test agent characterization in an unbiased way across a broad set of systems modeling various human disease states. These systems are designed to model complex human tissue and disease biology of the vasculature, skin, lung, and inflammatory tissues. Quantitative measurements of 148 biomarker activities across this broad panel, along with comparative analysis of biological activities from known bioactive agents, were used to predict and compare the efficacy and function of each selected compound at four concentrations (740 nm and 2.2, 6.7 and 20 μM). […]

[1] = system: Venular endothelial cells, peripheral blood mononuclear cells; assay: BioMAP Diversity PLUS SAg system (T cell stimulation, Th1 type chronic inflammation); settings: for Significant log10 reduction compared to nontreated controls: T cell proliferation: SAg system
Method: as §1, §2, §3, §4

[2] = system: Peripheral blood mononuclear cells, B cells; assay: BioMAP Diversity PLUS BT system (T cell dependent B cell activation); settings: BT system
Method: as §1, §2
(§5) Each test agent generates a signature BioMAP profile that is created from the changes in protein biomarker readouts within individual system environments. Biomarker readouts (7-17 per system) are selected for therapeutic and biological relevance, are predictive for disease outcomes or specific drug effects and are validated using agents with known mechanism of action (MoA). Each readout is measured quantitatively by immune-based methods that detect protein (e.g., ELISA) or functional assays that measure proliferation and viability. BioMAP readouts are diverse and include cell surface receptors, cytokines, chemokines, matrix molecules and enzymes.
(§6) The Diversity PLUS panel allows test agent characterization in an unbiased way across a broad set of systems modeling various human disease states. These systems are designed to model complex human tissue and disease biology of the vasculature, skin, lung, and inflammatory tissues.
(§7) BioMAP systems are constructed with one or more primary cell types from healthy human donors, with stimuli (such as cytokines or growth factors) added to capture relevant signaling networks that naturally occur in human tissue or pathological conditions. Vascular biology is modeled in both a Th1 (3C system) and a Th2 (4H system) inflammatory environment, as well as in a Th1 inflammatory state specific to arterial smooth muscle cells (CASM3C system). Additional systems recapitulate aspects of the systemic immune response including monocyte-driven Th1 inflammation (LPS system) or T cell stimulation (SAg system), chronic Th1 inflammation driven by macrophage activation (lMphg system) and the T cell-dependent activation of B cells that occurs in germinal centers (BT system).

Dermal fibroblasts = assay: BioMAP Diversity PLUS HDF3CGF system (wound healing and matrix/tissue remodeling)
Method: as §1, §2, §5, §6, §7

[3] = system: Venular endothelial cells, peripheral blood mononuclear cells; assay: BioMAP Diversity PLUS LPS system (Th1 type chronic inflammation, monocyte activation)
Method: as §1, §2, §5, §6, §7

[4] = system: Bronchial epithelial cells, dermal fibroblasts; assay: BioMAP Diversity PLUS BF4T system (Th2 type lung inflammation)
Method: as §1, §2, §3, §4

[5] = system: Macrophages, venular endothelial cells; assay: BioMAP Diversity PLUS lMphg system (Th1 type chronic inflammation, macrophage activation); settings: /Mphg system
Method: as §1, §2, §3, §4

[6] = system: Bronchial epithelial cells; assay: BioMAP Diversity PLUS BE3C system (Th1 type lung inflammation)
Method: as §1, §2, §3, §4

NCCCCC(=O)O [5-aminovalerate]
Significant log10 reduction compared to nontreated controls: Decorin (Lung fibroblasts; 6.7 μM): −0.07 log10
Significant log10 reduction compared to nontreated controls: Decorin (Lung fibroblasts; 20.0 μM): −0.10 log10
Significant log10 reduction compared to nontreated controls: T cell proliferation ([1]; 0.7 μM): −0.7 log10
Significant log10 reduction compared to nontreated controls: T cell proliferation ([1]; 2.2 μM): −0.12 log10
Significant log10 reduction compared to nontreated controls: T cell proliferation ([1]; 6.7 μM): −0.14 log10
T cell proliferation ([1]; human cell system mimicking T-cell driven chronic inflammation and autoimmune diseases, concentrations ranging from 740 nm to 6.7 μM (FIG. 2)): decreased
Significant log10 reduction compared to nontreated controls: Tumor necrosis factor alpha (TNFα) ([2]; 6.7 μM): −0.11 log10
decorin (Dermal fibroblasts; human cell system mimicking wound healing, remodeling, fibrosis and chronic inflammation (FIG. 7)): inhibitory activity
Significant log10 reduction compared to nontreated controls: Secreted prostaglandin E2 (PGE2) ([3]; LPS system, 6.7 μM): −0.10 log10
secretion of prostaglandin E2 (PGE2) ([3]; human cell system mimicking T-cell and monocyte driven chronic inflammation and cardiovascular diseases (FIG. 4)): lowered

lignoceroylcarnitine [Lignoceroylcarnitine (C24)]
Significant log10 reduction compared to nontreated controls: Alpha smooth muscle actin (αSMA) (Lung fibroblasts; 0.7 μM): −0.08 log10
Significant log10 reduction compared to nontreated controls: Alpha smooth muscle actin (αSMA) (Lung fibroblasts; 2.2 μM): −0.13 log10
Significant log10 reduction compared to nontreated controls: Alpha smooth muscle actin (αSMA) (Lung fibroblasts; 6.7 μM): −0.18 log10
Significant log10 reduction compared to nontreated controls: Alpha smooth muscle actin (αSMA) (Lung fibroblasts; 20.0 μM): −0.20 log10
Significant log10 reduction compared to nontreated controls: Keratin 8/18 ([4]; 0.7 μM): −0.07 log10
Significant log10 reduction compared to nontreated controls: Keratin 8/18 ([4]; 2.2 μM): −0.07 log10
Significant log10 reduction compared to nontreated controls: Keratin 8/18 ([4]; 6.7 μM): −0.09 log10
Significant log10 reduction compared to nontreated controls: Keratin 8/18 ([4]; 20.0 μM): −0.11 log10
Significant log10 reduction compared to nontreated controls: Monocyte chemoattractant protein 1 (MCP-1) ([5]; 2.2 μM): −0.29 log10
Significant log10 reduction compared to nontreated controls: Monocyte chemoattractant protein 1 (MCP-1) ([5]; 6.7 μM): −0.16 log10
Significant log10 reduction compared to nontreated controls: Monocyte chemoattractant protein 1 (MCP-1) ([5]; 20.0 μM): −0.11 log10
Significant log10 reduction compared to nontreated controls: Interferon-inducible T cell alpha chemoattractant (I-TAC)/CXCL11 ([6]; 0.7 μM): −0.05 log10
Significant log10 reduction compared to nontreated controls: Interferon-inducible T cell alpha chemoattractant (I-TAC)/CXCL11 ([6]; 2.2 μM): −0.12 log10
Significant log10 reduction compared to nontreated controls: B cell proliferation ([2]; 0.7 μM): −0.15 log10
Significant log10 reduction compared to nontreated controls: B cell proliferation ([2]; 2.2 μM): −0.09 log10
Significant log10 reduction compared to nontreated controls: Secreted tumor necrosis factor alpha (TNFα) ([2]; 2.2 μM): −0.10 log10
Significant log10 reduction compared to nontreated controls: B cell proliferation ([2]; 6.7 μM): −0.09 log10
Significant log10 reduction compared to nontreated controls: Secreted interleukin 2 (IL-2) ([2]; 6.7 μM): −0.11 log10
Significant log10 reduction compared to nontreated controls: B cell proliferation ([2]; 20.0 μM): −0.07 log10
Significant log10 reduction compared to nontreated controls: Secreted interleukin 6 (IL-6) ([2]; 20.0 μM): −0.13 log10
Significant log10 reduction compared to nontreated controls: Secreted interleukin 17A (IL-17A) ([2]; 20.0 μM): −0.25 log10

CCCCC/C=C\C/C=C\C/C=C\C/C=C\CCCC(=O)O[C@H](COC(=O)CCCCCCCCCCCCCCC)COP(=O)([O-])OCC[N+](C)(C)C [1-palmitoyl-2-arachidonoyl-GPC]
Significant log10 reduction compared to nontreated controls: Alpha smooth muscle actin (αSMA) (Lung fibroblasts; 0.7 μM): −0.07 log10
Significant log10 reduction compared to nontreated controls: Alpha smooth muscle actin (αSMA) (Lung fibroblasts; 2.2 μM): −0.09 log10
Significant log10 reduction compared to nontreated controls: Alpha smooth muscle actin (αSMA) (Lung fibroblasts; 6.7 μM): −0.10 log10
Significant log10 reduction compared to nontreated controls: Alpha smooth muscle actin (αSMA) (Lung fibroblasts; 20.0 μM): −0.18 log10
Significant log10 reduction compared to nontreated controls: Eotaxin 3 (CCL26) ([4]; 2.2 μM): −0.11 log10
Significant log10 reduction compared to nontreated controls: Eotaxin 3 (CCL26) ([4]; 6.7 μM): −0.24 log10
Significant log10 reduction compared to nontreated controls: Plasminogen activation inhibitor 1 (PAI-1) ([4]; 6.7 μM): −0.07 log10
Significant log10 reduction compared to nontreated controls: Eotaxin 3 (CCL26) ([4]; 20.0 μM): −0.58 log10
Significant log10 reduction compared to nontreated controls: Plasminogen activation inhibitor 1 (PAI-1) ([4]; 20.0 μM): −0.19 log10
Significant log10 reduction compared to nontreated controls: Monocyte chemoattractant protein 1 (MCP-1) ([5]; 2.2 μM): −0.12 log10
Significant log10 reduction compared to nontreated controls: Monocyte chemoattractant protein 1 (MCP-1) ([5]; 6.7 μM): −0.13 log10
Significant log10 reduction compared to nontreated controls: Secreted interleukin 10 (IL-10) ([5]; 6.7 μM): −0.18 log10
Significant log10 reduction compared to nontreated controls: CD69 ([5]; 20.0 μM): −0.11 log10
Significant log10 reduction compared to nontreated controls: Monocyte chemoattractant protein 1 (MCP-1) ([5]; 20.0 μM): −0.18 log10
Significant log10 reduction compared to nontreated controls: Keratin 8/18 ([6]; 6.7 μM): −0.08 log10
Significant log10 reduction compared to nontreated controls: Interleukin 8 (IL-8)/CXCL8 ([6]; 20.0 μM): −0.12 log10
Significant log10 reduction compared to nontreated controls: Matrix metalloproteinase 9 (MMP-9) ([6]; 20.0 μM): −0.11 log10
Significant log10 reduction compared to nontreated controls: Plasminogen activation inhibitor 1 (PAI-1) ([6]; 20.0 μM): −0.12 log10
Significant log10 reduction compared to nontreated controls: Secreted interleukin 17F (IL-17F) ([2]; 2.2 μM): −0.12 log10
Significant log10 reduction compared to nontreated controls: Secreted interleukin 2 (IL-2) ([2]; 20.0 μM): −0.27 log10
Significant log10 reduction compared to nontreated controls: Secreted interleukin 17F (IL-17F) ([2]; 20.0 μM): −0.24 log10
Significant log10 reduction compared to nontreated controls: Secreted tumor necrosis factor alpha (TNFα) ([2]; 20.0 μM): −0.16 log10
Significant log10 reduction compared to nontreated controls: Plasminogen activation inhibitor 1 (PAI-1) (Dermal fibroblasts; HDF3CGF system, 20.0 μM): −0.11 log10
